Results on 5 molecules are retold here after US7109185B2, “Pharmaceutical formulations comprising indolinone derivatives” (Sugen, Inc., priority 2001, dated 2006).

One may read the melting point as the temperature of the solid-liquid transition.

For data set [1], the system named is vascular endothelial growth factor receptor (Flk-1/KDR). The conditions noted are these: Fong et al. (1999) Cancer Res. 59:99–106; cited from earlier work.
Data set [2] can be described thus: Plasma Stability Test: conversion of prodrug to drug after IV administration to dogs, HPLC analysis of blood plasma. The class given is in vivo. To be noted: IV at 2 mg/mL, blood plasma followed for 4 hours. As for the experimental part: The prodrug (3Z)-3-[(3,5-dimethyl-1H-pyrrol-2-yl)-methylidene]-1-(1-pyrrolidinylmethyl)-1,3-dihydro-2H-indol-2-one was administered IV at 2 mg/mL to dogs. Levels of both prodrug and drug (3(Z)-3-[(3,5-dimethyl-1H-pyrrol-2-yl)-methylidene]-1,3-dihydro-2H-indol-2-one) were followed by HPLC analysis of blood plasma for 4 hours following dosing.

Data set [3] in a line: Hydrolysis (pH stability profile) at pH 7.2 and 7.6. The class given is physicochemical. To be noted: for half-life: buffer, read-out: Half life, t1/2 (hydrolysis). The text has this: (3Z)-3-[(3,5-Dimethyl-1H-pyrrol-2-yl)-methylidene]-1-(1-pyrrolidinylmethyl)-1,3-dihydro-2H-indol-2-one is a Mannich base and is designed to hydrolyse to 3-(3,5-dimethyl-1H-pyrrol-2-ylmethylene)-1,3-dihydro-indol-2-one at physiological pH. The stability of (3Z)-3-[(3,5-dimethyl-1H-pyrrol-2-yl)-methylidene]-1-(1-pyrrolidinylmethyl)-1,3-dihydro-2H-indol-2-one is higher at a lower pH. […] The pH stability profile of (3Z)-3-[(3,5-dimethyl-1H-pyrrol-2-yl)-methylidene]-1-(1-pyrrolidinylmethyl)-1,3-dihydro-2H-indol-2-one at pH 7.2 and pH 7.6 is tabulated in table 1.

As for `Cc1cc(C)c(C=C2C(=O)Nc3ccccc32)[nH]1` [3-(3,5-dimethyl-1H-pyrrol-2-ylmethylene)-1,3-dihydro-indol-2-one], the “inhibition of the vascular endothelial growth factor receptor (Flk-1/KDR)” value in data set [1] is listed as “highly active selective inhibitor”.

As to `Cc1cc(C)c(/C=C2\C(=O)N(CO)c3ccccc32)[nH]1` [Example 1, (3Z)-3-[(3,5-dimethyl-1H-pyrrol-2-yl)-methylidene]-1-(hydroxymethyl)-1,3-dihydro-2H-indol-2-one], the melting point was 200 to 202 °C.

In turn, `Cc1cc(C)c(/C=C2\C(=O)N(COC(=O)CCC(=O)O)c3ccccc32)[nH]1` [Example 3, 4-({(3Z)-3-[(3,5-dimethyl-1H-pyrrol-2-yl)-methylidene]-2-oxo-2,3-dihydro-1H-indol-1-yl}methoxy)-4-oxobutanoic acid] had a melting point of 160 to 162 °C.

The molecule `CC(=O)OC(C)N1C(=O)/C(=C\c2[nH]c(C)cc2C)c2ccccc21` (stereo not shown) [Example 4, 1-{(3Z)-3-[(3,5-dimethyl-1H-pyrrol-2-yl)-methylidene]-2-oxo-2,3-dihydro-1H-indol-1-yl}ethyl acetate] came in with a melting point of 107 to 110 °C.

Take `Cc1cc(C)c(/C=C2\C(=O)N(CN3CCCC3)c3ccccc32)[nH]1` [Example 14, (3Z)-3-[(3,5-dimethyl-1H-pyrrol-2-yl)-methylidene]-1-(1-pyrrolidinylmethyl)-1,3-dihydro-2H-indol-2-one]: the melting point was in the range of 129 to 132 °C. Also, the “prodrug converted into drug (area under the curve of drug concentration vs time)” value in data set [2] is reported as 80%. The half-life in data set [2] (dog) came to 7.3 min. The half-life in data set [3] (pH 7.2) is 6.2 min. Also, the half-life in data set [3] (pH 7.6) stood at 6 min. Also, the “hydrolysis to 3-(3,5-dimethyl-1H-pyrrol-2-ylmethylene)-1,3-dihydro-indol-2-one” value in data set [3] (physiological pH) is “rapidly hydrolyses”.
